Measurements from PubChem BioAssay AID1918946 (Molecular Pharmacology Branch, DTP, NCI, 2023).

Test system: 885512-296-R-J2-PDC complex spheroid viability
Assay: Anticancer human tumor 885512-296-R-J2-PDC patient-derived breast carcinoma cell line growth inhibition
Conditions: for IC50: curve of first compound; for viability, T/C: stronger effect = lower value
Method in brief: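 Drug combinations with the LSD1 inhibitor iadademstat tested on tumor cells co-cultured as spheroids with endothelial cells and mesenchymal stem cells. Concentrations descended in half-log increments from clinical Cmax or 10 microM.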

[1] = second compound 0.1 µM, first compound 0.0316 µM
[2] = second compound 0.1 µM, first compound 0.1 µM
[3] = second compound 0.316 µM, first compound 0.0316 µM
[4] = second compound 0.316 µM, first compound 0.1 µM
[5] = second compound 1 µM, first compound 0.0316 µM
[6] = second compound 1 µM, first compound 0.1 µM
[7] = second compound 3.16 µM, first compound 0.0316 µM
[8] = second compound 3.16 µM, first compound 0.1 µM
[9] = second compound 10 µM, first compound 0.0316 µM
[10] = second compound 10 µM, first compound 0.1 µM
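Further: spheroids exposed to agents for 7 days before viability read.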

SMILES: CC1(C)CCC(CN2CCN(c3ccc(C(=O)NS(=O)(=O)c4ccc(NCC5CCOCC5)c([N+](=O)[O-])c4)c(Oc4cnc5[nH]ccc5c4)c3)CC2)=C(c2ccc(Cl)cc2)C1 + NC1CC1c1ccc(-c2cccc(O)c2)cc1
- IC50 (second compound 0.1 µM): 1.78 µM
- IC50 (second compound 0.316 µM): 1.82 µM
- IC50 (second compound 1 µM): 1.85 µM
- IC50 (second compound 3.16 µM): 1.53 µM
- IC50 (second compound 10 µM): 0.994 µM
- viability, T/C [1]: 118%
- viability, T/C [2]: 111%
- viability, T/C (second compound 0.1 µM, first compound 0.316 µM): 105%
- viability, T/C (second compound 0.1 µM, first compound 1 µM): 76.4%
- viability, T/C (second compound 0.1 µM, first compound 3.16 µM): 23.9%
- viability, T/C (second compound 0.1 µM, first compound 10 µM): 0.12%
- viability, T/C [3]: 122%
- viability, T/C [4]: 112%
- viability, T/C (second compound 0.316 µM, first compound 0.316 µM): 105%
- viability, T/C (second compound 0.316 µM, first compound 1 µM): 82.3%
- viability, T/C (second compound 0.316 µM, first compound 3.16 µM): 20.8%
- viability, T/C (second compound 0.316 µM, first compound 10 µM): 0.11%
- viability, T/C [5]: 115%
- viability, T/C [6]: 116%
- viability, T/C (second compound 1 µM, first compound 0.316 µM): 105%
- viability, T/C (second compound 1 µM, first compound 1 µM): 79.9%
- viability, T/C (second compound 1 µM, first compound 3.16 µM): 24.4%
- viability, T/C (second compound 1 µM, first compound 10 µM): 0.22%
- viability, T/C [7]: 103%
- viability, T/C [8]: 103%
- viability, T/C (second compound 3.16 µM, first compound 0.316 µM): 101%
- viability, T/C (second compound 3.16 µM, first compound 1 µM): 68.4%
- viability, T/C (second compound 3.16 µM, first compound 3.16 µM): 17.6%
- viability, T/C (second compound 3.16 µM, first compound 10 µM): 0.11%
- viability, T/C [9]: 83.1%
- viability, T/C [10]: 78.8%
- viability, T/C (second compound 10 µM, first compound 0.316 µM): 70.5%
- viability, T/C (second compound 10 µM, first compound 1 µM): 52.1%
- viability, T/C (second compound 10 µM, first compound 3.16 µM): 12.4%
- viability, T/C (second compound 10 µM, first compound 10 µM): 0.15%

SMILES: Cn1ncnc1C1c2n[nH]c(=O)c3cc(F)cc(c23)NC1c1ccc(F)cc1 (stereo not given) + NC1CC1c1ccc(-c2cccc(O)c2)cc1
- IC50 (second compound 0.1 µM): 0.0551 µM
- IC50 (second compound 0.316 µM): 0.051 µM
- IC50 (second compound 1 µM): 0.041 µM
- IC50 (second compound 3.16 µM): 0.0281 µM
- IC50 (second compound 10 µM): 0.0155 µM
- viability, T/C (second compound 0.1 µM, first compound 0.000316 µM): 138%
- viability, T/C (second compound 0.1 µM, first compound 0.001 µM): 114%
- viability, T/C (second compound 0.1 µM, first compound 0.00316 µM): 98.7%
- viability, T/C (second compound 0.1 µM, first compound 0.01 µM): 86.2%
- viability, T/C [1]: 63.6%
- viability, T/C [2]: 35.8%
- viability, T/C (second compound 0.316 µM, first compound 0.000316 µM): 112%
- viability, T/C (second compound 0.316 µM, first compound 0.001 µM): 121%
- viability, T/C (second compound 0.316 µM, first compound 0.00316 µM): 97%
- viability, T/C (second compound 0.316 µM, first compound 0.01 µM): 89.2%
- viability, T/C [3]: 64.3%
- viability, T/C [4]: 30.3%
- viability, T/C (second compound 1 µM, first compound 0.000316 µM): 118%
- viability, T/C (second compound 1 µM, first compound 0.001 µM): 114%
- viability, T/C (second compound 1 µM, first compound 0.00316 µM): 101%
- viability, T/C (second compound 1 µM, first compound 0.01 µM): 86.3%
- viability, T/C [5]: 53.7%
- viability, T/C [6]: 32.3%
- viability, T/C (second compound 3.16 µM, first compound 0.000316 µM): 105%
- viability, T/C (second compound 3.16 µM, first compound 0.001 µM): 110%
- viability, T/C (second compound 3.16 µM, first compound 0.00316 µM): 94.2%
- viability, T/C (second compound 3.16 µM, first compound 0.01 µM): 77.4%
- viability, T/C [7]: 46.7%
- viability, T/C [8]: 27.2%
- viability, T/C (second compound 10 µM, first compound 0.000316 µM): 72.4%
- viability, T/C (second compound 10 µM, first compound 0.001 µM): 80.2%
- viability, T/C (second compound 10 µM, first compound 0.00316 µM): 70.5%
- viability, T/C (second compound 10 µM, first compound 0.01 µM): 55.5%
- viability, T/C [9]: 39.1%
- viability, T/C [10]: 20.5%

SMILES: NS(=O)(=O)OCC1CC(n2ccc3c(NC4CCc5ccccc54)ncnc32)CC1O (stereo not given) + NC1CC1c1ccc(-c2cccc(O)c2)cc1
- IC50 (second compound 0.1 µM): < 0.00949 µM
- IC50 (second compound 0.316 µM): < 0.00949 µM
- IC50 (second compound 1 µM): < 0.00949 µM
- IC50 (second compound 3.16 µM): < 0.00949 µM
- IC50 (second compound 10 µM): < 0.00949 µM
- viability, T/C (second compound 0.1 µM, first compound 0.00949 µM): 15.9%
- viability, T/C (second compound 0.1 µM, first compound 0.03 µM): 6.61%
- viability, T/C (second compound 0.1 µM, first compound 0.0949 µM): 2.38%
- viability, T/C (second compound 0.1 µM, first compound 0.3 µM): 1.74%
- viability, T/C (second compound 0.1 µM, first compound 0.949 µM): 1.42%
- viability, T/C (second compound 0.1 µM, first compound 3 µM): 1.17%
- viability, T/C (second compound 0.316 µM, first compound 0.00949 µM): 13.4%
- viability, T/C (second compound 0.316 µM, first compound 0.03 µM): 5.58%
- viability, T/C (second compound 0.316 µM, first compound 0.0949 µM): 2.27%
- viability, T/C (second compound 0.316 µM, first compound 0.3 µM): 1.48%
- viability, T/C (second compound 0.316 µM, first compound 0.949 µM): 1.54%
- viability, T/C (second compound 0.316 µM, first compound 3 µM): 1.19%
- viability, T/C (second compound 1 µM, first compound 0.00949 µM): 11.8%
- viability, T/C (second compound 1 µM, first compound 0.03 µM): 5.8%
- viability, T/C (second compound 1 µM, first compound 0.0949 µM): 2.84%
- viability, T/C (second compound 1 µM, first compound 0.3 µM): 1.53%
- viability, T/C (second compound 1 µM, first compound 0.949 µM): 1.65%
- viability, T/C (second compound 1 µM, first compound 3 µM): 1.49%
- viability, T/C (second compound 3.16 µM, first compound 0.00949 µM): 10.9%
- viability, T/C (second compound 3.16 µM, first compound 0.03 µM): 4.37%
- viability, T/C (second compound 3.16 µM, first compound 0.0949 µM): 2.28%
- viability, T/C (second compound 3.16 µM, first compound 0.3 µM): 1.46%
- viability, T/C (second compound 3.16 µM, first compound 0.949 µM): 1.66%
- viability, T/C (second compound 3.16 µM, first compound 3 µM): 1.1%
- viability, T/C (second compound 10 µM, first compound 0.00949 µM): 8.81%
- viability, T/C (second compound 10 µM, first compound 0.03 µM): 4.76%
- viability, T/C (second compound 10 µM, first compound 0.0949 µM): 1.87%
- viability, T/C (second compound 10 µM, first compound 0.3 µM): 1.89%
- viability, T/C (second compound 10 µM, first compound 0.949 µM): 0.97%
- viability, T/C (second compound 10 µM, first compound 3 µM): 0.66%
